Data taken from ChEMBL document CHEMBL1201862, “PubChem BioAssay data set” (2004).
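Cultured in 96-well plates, cells were exposed to test compound for 48 hours across five concentrations. GI50 is the concentration that inhibits growth by half.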 Activity calls are given as the source filed them. Cut-off read from the data, not from the text of the source: active = GI50 up to about 1.1 µM and inactive = higher.

Legend:
Experiment in all cases: inhibition of tumour cell growth, NCI panel, 48 h
786-0 = tested on: 786-0
A549 = tested on: A549
ACHN = tested on: ACHN
CCRF-CEM = tested on: CCRF-CEM
COLO 205 = tested on: COLO 205
DLD-1 = tested on: DLD-1
DMS-114 = tested on: DMS-114
EKVX = tested on: EKVX
HCC 2998 = tested on: HCC 2998
HCT-15 = tested on: HCT-15
HL-60 = tested on: HL-60
HOP-18 = tested on: HOP-18
HOP-92 = tested on: HOP-92
IGROV-1 = tested on: IGROV-1
K562 = tested on: K562
KM12 = tested on: KM12
M14 = tested on: M14
M19-MEL = tested on: M19-MEL
MOLT-4 = tested on: MOLT-4
Malme-3M = tested on: Malme-3M
NCI-H226 = tested on: NCI-H226
NCI-H23 = tested on: NCI-H23
NCI-H522 = tested on: NCI-H522
OVCAR-3 = tested on: OVCAR-3
OVCAR-5 = tested on: OVCAR-5
OVCAR-8 = tested on: OVCAR-8
RPMI-8226 = tested on: RPMI-8226
RXF 393 = tested on: RXF 393
SF-268 = tested on: SF-268
SF-295 = tested on: SF-295
SF-539 = tested on: SF-539
SK-MEL-28 = tested on: SK-MEL-28
SK-MEL-2 = tested on: SK-MEL-2
SK-OV-3 = tested on: SK-OV-3
SN12C = tested on: SN12C
SNB-19 = tested on: SNB-19
SNB-75 = tested on: SNB-75
SR = tested on: SR
SW-620 = tested on: SW-620
TK-10 = tested on: TK-10
UACC-257 = tested on: UACC-257
UACC-62 = tested on: UACC-62
UO-31 = tested on: UO-31
XF498 = tested on: XF498
A498 = tested on: A498
CAKI-1 = tested on: CAKI-1
DMS-273 = tested on: DMS-273
HCT-116 = tested on: HCT-116
HOP-62 = tested on: HOP-62
HT-29 = tested on: HT-29
KM-20L2 = tested on: KM-20L2
LOX IMVI = tested on: LOX IMVI
MCF7 = tested on: MCF7
NCI-H460 = tested on: NCI-H460
NCI/ADR-RES = tested on: NCI/ADR-RES
OVCAR-4 = tested on: OVCAR-4
SK-MEL-5 = tested on: SK-MEL-5
SNB-78 = tested on: SNB-78
U-251 = tested on: U-251

With `C=CCC1(C(=O)OC(C)(C)C)C(OC)=C(C(=O)OC(C)(C)C)C2C1C(C(=O)OC(C)(C)C)=C(OC)C2(CC=C)C(=O)OC(C)(C)C` (stereo not drawn) the GI50 (786-0) was > 100000 nM (inactive), the GI50 (A549) was > 100000 nM (inactive) and the GI50 (ACHN) was > 100000 nM (inactive). For the same compound, the GI50 (CCRF-CEM) was > 100000 nM (inactive), the GI50 (COLO 205) was > 100000 nM (inactive) and the GI50 (DLD-1) was > 100000 nM (inactive). For the same compound, the GI50 (DMS-114) was > 100000 nM (inactive), the GI50 (EKVX) was > 100000 nM (inactive) and the GI50 (HCC 2998) was > 100000 nM (inactive). The GI50 (HCT-15) was greater than 100000 nM, the GI50 (HL-60) was > 100000 nM (inactive) and the GI50 (HOP-18) was > 100000 nM (inactive). The GI50 (HOP-92) was > 100000 nM (inactive), the GI50 (IGROV-1) was > 100000 nM (inactive) and the GI50 (K562) was > 100000 nM (inactive). For the same compound, the GI50 (KM12) was > 100000 nM (inactive), the GI50 (M14) was > 100000 nM (inactive) and the GI50 (M19-MEL) was > 100000 nM (inactive). For the same compound, the GI50 (MOLT-4) was > 100000 nM (inactive), the GI50 (Malme-3M) was > 10000 nM (inactive) and the GI50 (NCI-H226) was > 100000 nM (inactive). The GI50 (NCI-H23) was > 100000 nM (inactive), the GI50 (NCI-H522) was > 100000 nM (inactive) and the GI50 (OVCAR-3) was > 100000 nM (inactive). The GI50 (OVCAR-5) was > 100000 nM (inactive), the GI50 (OVCAR-8) was > 100000 nM (inactive) and the GI50 (RPMI-8226) was > 100000 nM (inactive). The GI50 (RXF 393) was > 100000 nM (inactive), the GI50 (SF-268) was > 100000 nM (inactive) and the GI50 (SF-295) was > 100000 nM (inactive). The GI50 (SF-539) was > 100000 nM (inactive), the GI50 (SK-MEL-28) was > 100000 nM (inactive) and the GI50 (SK-MEL-2) was > 100000 nM (inactive). The GI50 (SK-OV-3) was > 100000 nM (inactive), the GI50 (SN12C) was > 100000 nM (inactive) and the GI50 (SNB-19) was > 100000 nM (inactive). The GI50 (SNB-75) was > 100000 nM (inactive), the GI50 (SR) was > 100000 nM (inactive) and the GI50 (SW-620) was > 100000 nM (inactive). The GI50 (TK-10) was 64600 nM (inactive), the GI50 (UACC-257) was > 100000 nM (inactive) and the GI50 (UACC-62) was > 100000 nM (inactive). For the same compound, the GI50 (UO-31) was > 100000 nM (inactive) and the GI50 (XF498) was > 100000 nM (inactive).

`CN(C)CCOc1cc2c(c3ccccc13)-c1ccccc1C2=O` was tested, and the GI50 (A498) was 6680 nM (inactive), the GI50 (A549) was 9620 nM (inactive) and the GI50 (CAKI-1) was 388 nM (active). For the same compound, the GI50 (CCRF-CEM) was 1520 nM (inactive), the GI50 (COLO 205) was 1920 nM (inactive) and the GI50 (DLD-1) was 1150 nM (inactive). For the same compound, the GI50 (DMS-114) was 1090 nM (active), the GI50 (DMS-273) was 531 nM (active) and the GI50 (EKVX) was 4910 nM (inactive). The GI50 (HCC 2998) was 1750 nM (inactive), the GI50 (HCT-116) was 1030 nM (active) and the GI50 (HCT-15) was 1180 nM. For the same compound, the GI50 (HL-60) was 1240 nM (inactive), the GI50 (HOP-18) was 2070 nM (inactive) and the GI50 (HOP-62) was 1190 nM (inactive). For the same compound, the GI50 (HOP-92) was 933 nM (active), the GI50 (HT-29) was 1190 nM (inactive) and the GI50 (IGROV-1) was 1880 nM (inactive). For the same compound, the GI50 (K562) was 1740 nM (inactive), the GI50 (KM-20L2) was 2100 nM (inactive) and the GI50 (KM12) was 1460 nM (inactive). For the same compound, the GI50 (LOX IMVI) was 1050 nM (active), the GI50 (M19-MEL) was 1350 nM (inactive) and the GI50 (MCF7) was 1100 nM (active). The GI50 (MOLT-4) was 339 nM (active), the GI50 (Malme-3M) was 2190 nM (inactive) and the GI50 (NCI-H226) was 1950 nM (inactive). The GI50 (NCI-H23) was 2360 nM (inactive), the GI50 (NCI-H460) was 675 nM (active) and the GI50 (NCI-H522) was 1320 nM (inactive). The GI50 (NCI/ADR-RES) was 818 nM (active), the GI50 (OVCAR-3) was 1900 nM (inactive) and the GI50 (OVCAR-4) was 1120 nM (active). The GI50 (OVCAR-5) was 2470 nM (inactive), the GI50 (OVCAR-8) was 895 nM (active) and the GI50 (RPMI-8226) was 1560 nM (inactive). For the same compound, the GI50 (RXF 393) was 2860 nM (inactive), the GI50 (SF-268) was 1450 nM (inactive) and the GI50 (SF-295) was 1710 nM (inactive). The GI50 (SF-539) was 1760 nM (inactive), the GI50 (SK-MEL-28) was 1800 nM (inactive) and the GI50 (SK-MEL-2) was 1950 nM (inactive). For the same compound, the GI50 (SK-MEL-5) was 1580 nM (inactive), the GI50 (SK-OV-3) was 7530 nM (inactive) and the GI50 (SN12C) was 1580 nM (inactive). The GI50 (SNB-19) was 2700 nM (inactive), the GI50 (SNB-75) was 1800 nM (inactive) and the GI50 (SNB-78) was 6030 nM (inactive). The GI50 (SW-620) was 1390 nM (inactive), the GI50 (U-251) was 2160 nM (inactive) and the GI50 (UACC-257) was 1720 nM (inactive). The GI50 (UACC-62) was 1800 nM (inactive), the GI50 (UO-31) was 1500 nM (inactive) and the GI50 (XF498) was 1600 nM (inactive).
